# Laboratory results reported in PMC11156899, “High-throughput screening unveils nitazoxanide as a potent PRRSV inhibitor by targeting NMRAL1” (Nature Communications, 2024).
# Target: NMRAL1 (Chlorocebus sabaeus, UniProt A0A0D9R9W0)
# Experiment: NMRAL1 dimerization (western blot, in cells and purified protein)
# Type: biochemical
# Details: in cells and with purified NMRAL1 protein
# Description: In these proteins, we separately purified the proteins of NSP1α, NSP12, and NMRAL1. […] We speculate that NMRAL1 may be the primary target of NTZ action. […] Previous studies have shown NMRAL1 inhibits retinoic acid-inducible gene I (RIG-I) mediated antiviral responses. NTZ has been reported to activate the RIG-I pathway and induce an increase in IFN-β[25], which our findings corroborate (Fig. 6e–j). […] Differential Scanning Fluorimetry (DSF) confirmed NTZ binding to NMRAL1 (Fig. 6n). […] Molecular dynamics (MD) simulations were conducted for a more accurate understanding of TIZ’s role within the NMRAL1 dimer. Fluctuations or reductions in root-mean-square deviation (RMSD), Rg, and hydrogen bond count data after 80 ns indicated significant changes in the NMRAL1 system (Supplementary Fig. 12 a, b, d). […] TIZ primarily interacted with A chain’s LYS41, LYS42, LYS45, and B chain’s LYS92, LYS89, LYS95, GLN93, LEU96, LYS118, and ARG103, with B chain’s LYS92 and LYS89 and A chain’s LYS41 being the hotspots with binding energies greater than −1 kcal/mol (Supplementary Fig. 13). […]
# For Western blot analysis, protein samples were heated at 95 °C for 8 min and then cooled to room temperature. […] The protein signals were detected using a chemiluminescent substrate (34577, Thermo) and visualized using the Gel Doc XR+ molecular imager (Bio-Rad).
# Chain of NMRAL1 (A0A0D9R9W0 entry or part of it): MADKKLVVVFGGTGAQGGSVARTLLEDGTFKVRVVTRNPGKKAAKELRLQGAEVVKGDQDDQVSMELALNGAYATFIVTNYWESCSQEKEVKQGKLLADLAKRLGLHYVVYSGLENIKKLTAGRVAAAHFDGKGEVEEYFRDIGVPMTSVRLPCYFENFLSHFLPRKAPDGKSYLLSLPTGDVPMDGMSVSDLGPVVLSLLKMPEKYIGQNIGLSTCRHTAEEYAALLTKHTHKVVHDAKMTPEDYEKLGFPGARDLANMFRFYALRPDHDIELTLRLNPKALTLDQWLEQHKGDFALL
smiles,measurement,value
CC(=O)Oc1ccccc1C(=O)Nc1ncc([N+](=O)[O-])s1 [Nitazoxanide],NMRAL1 dimer formation,increased NMRAL1 dimer formation
